Data published in patent US9248202B2, “Two-photon probe for detecting copper(II) ion and quantitative estimation of copper(II) ion in human tissue using the same” (Korea University Research and Business Foundation, priority 2014, dated 2016).

Key:
[1] = system: human colon tissue; assay: Quantitative estimation of copper(II) ion in human colon tissue by TPM; conditions: for average Ired/Iblue ratio: 20 μM ACCu2
Text: Colon slices were obtained from outpatients who underwent elective colonoscopies at the Korea University Medical Center Anam Hospital. The volunteers were recruited to participate in the experiment, which was approved by the hospital ethics committee, and all the participating patients provided informed consents. The patients who had known or suspected bleeding disorders, an international normalized ratio of prothrombin time exceeding 1.4 a platelet count of <100,000 or who had taken aspirin within the previous 5 days were excluded.
During the colonoscopy examination, tissues were obtained from malignant lesions, adenomas and normal mucosa by biopsy forceps. Normal colon mucosal and adenoma or adenocarcinoma tissues were collected from the same patient. Standard biopsy forceps (Olympus Medical Systems Corporation, Tokyo, Japan) were used to obtain paired mucosal pinch biopsy specimens from the colon. 28, 10 and 6 tissue samples were acquired from normal, polyp and cancer tissues, respectively. The tissues were placed in sterile specimen bottles containing PBS. Half of the normal tissue samples were treated with EDTA (1 M) for 40 minutes. Then, the tissue samples were stained with 20 μM ACCu2 in artificial spinal fluid for 1-2 hours at 37.8° C. and then imaged.
As a result, clinical important images were obtained at depths of 90-190 μm in the mucosal and submucosal layers, as shown in FIG. 11(a).

[2] = system: HeLa cells; assay: Cell viability, CCK-8 kit; assay type: cell-based, human; conditions: various ACCu2 concentrations
Experimental: HeLa human cervical carcinoma cells were acquired from the ATCC (Manassas, Va., USA). The cells were cultured in DMEM (WelGene, Inc., Seoul, Korea) supplemented with heat-inactivated 10% FBS (WelGene), penicillin (100 units/mL) and streptomycin ([…]), All the cell lines were maintained in a humidified atmosphere of 5% CO2 and 95% air at 37° C. Two days before imaging, the cells were moved and plated onto glass-bottomed dishes (MatTek), For labeling, the growth medium was removed and replaced with FBS-free DMEM. The cells were incubated with 3 μM ACCu2 for 20 minutes at 37° C., washed 3 times with FBS-free DMEM and imaged.
The viability of HeLa cells with the ACCu2 concentration was measured under the incubation condition using the CCK-8 kit (Cell Counting Kit-8, Dojindo, Japan) (FIG. 7). […] Accordingly, it can be seen that the copper(II) ion concentration in living cells can be measured with minimum interference from cytotoxicity.

[3] = Absorption and fluorescence spectra, quantum yield, energy transfer; assay type: physicochemical; conditions: for φ (fluorescence quantum yield): uncertainty ± 15%; for λmax^abs: one-photon absorption; for λmax^t1: one-photon emission
Experimental: Absorption spectra were recorded using the Hewlett-Packard 8453 diode array spectrophotometer and fluorescence spectra were measured using the Amico-Bowman series 2 luminescence spectrometer a 1 cm standard quartz cell. The fluorescence quantum yield was determined using coumarin 307 and rhodamine B as references according to the literature method (J. N. Demas, G. A. Crosby, J. Phys. Chem. 1971, 75, 991).
(hereinafter, ‘ACCu2’), a compound of [Chemical Formula 12] (hereinafter, ‘FL’) and a compound of [Chemical Formula 13] (hereinafter, ‘IR’) in 1,4-dioxane, DMF, ethanol, EtOH/HEPES (9:1) and HEPES buffer ([HEPES]=20 mM, pH 7.0). Excitation wavelength was 420 nm. The solubility of ACCu2 in HEPES buffer ([HEPES]=20 mM, pH 7.0) as determined by the fluorescence method described in the literature (Kim, H. M.; Choo, H. J.; Jung, S. Y.; Ko, Y. G.; Park, W. H.; Jeon, S. J.; Kim, C. H.; Joo, T. H.; Cho, B. R. Chem Bio Chem 2007, 8, 553) was 8.0 μM, which was sufficient to stain cells.
To assess the origin of the spectral changes, the energy transfer efficiency (ETE) was calculated using Equation (1). The ETE was 93.4%.
In Equation (1), AIR and AIR′ are the absorbances of the IR moiety and IR, respectively, and FIR and FIR′ are the emission intensities of the IR moiety and IR, respectively, upon excitation at 373 nm.
The antenna effect in the one-photon (OP) (or TP) mode was 3.0 (or 3.1). The antenna effect was calculated by dividing the area of emission from the FL moiety upon excitation of the IR moiety at 373 nm (or 750 nm in the TP mode) by that collected from the direct excitation of FL at 461 nm (or 880 nm in the […]).

[4] = system: HeLa cells; assay: Photostability in labeled HeLa cells; assay type: cell-based, human; set-up: dose or concentration left out as unconfirmed; conditions: ACCu2-labeled HeLa cells, fs-pulses for 60 minutes
Experimental: The photostability of ACCu2 was determined by monitoring the change in TP excited fluorescence (TPEF) intensity from ACCu2 ([…])-labeled HeLa cells. […] This confirms that ACCu2 according to the present disclosure has high photostability and can measure the copper(II) ion concentration in living cells with minimum interference.

[5] = system: rat brain tissue; assay: Quantitative estimation of copper(II) ion in rat brain tissue slices by TPM
Experimental: Slices were prepared from the hippocampi and hypothalami of 2-day-old Sprague-Dawley (SD) rats. Coronal slices were cut into 400 μm thickness using a vibrating-blade microtome in artificial cerebrospinal fluid (ACSF; 138.6 mM NaCl, 3.5 mM KCl, 21 mM NaHCO3, 0.6 mM NaH2PO4, 9.9 mM D-glucose, 1 mM CaCl2 and 3 mM MgCl2). The slices were incubated with 20 μM ACCu2 in ACSF bubbled with 95% O2 and 5% CO2 for 30 minutes at 37° C. The slices were e then washed 3 times with ACSF, transferred to glass-bottomed dishes (MatTek) and observed with spectral confocal and rnultiphoton microscopy.
Because the structure of the brain tissue is heterogeneous, TPM images were acquired at depths of 90-190 μm to visualize the overall copper(II) on distribution.

[6] = EDTA-treated normal colon tissue
[7] = one-photon, excitation 373 nm, EtOH/HEPES (9:1, pH 7.0)
[8] = rat brain tissue, after copper(II) ion (500 μM) and PDTC (200 μM)

## COCCOCCOCCOc1ccc2c(ccc3cc(C(=O)N4CCN(C(=O)c5ccc(CNC(=O)c6cc7cc8ccc(N(C)C)cc8cc7oc6=O)nc5)CC4)c(=O)oc32)c1 [ACCu2]
[1]; [6]
  copper(II) ion concentration: 0.0 ± 0.1 µM
  average Ired/Iblue ratio: 10.0±0.3
[1]; cancer colon tissue
  copper(II) ion concentration: 22 ± 3 µM
  average Ired/Iblue ratio: 5.2±0.6
[1]; normal colon tissue
  copper(II) ion concentration: 8.2 ± 0.3 µM
  average Ired/Iblue ratio: 8.3±0.4
[1]; polyp colon tissue
  copper(II) ion concentration: 13 ± 2 µM
  average Ired/Iblue ratio: 7.2±0.5
[2]
  viability of HeLa cells: did not affect the viability of HeLa cells
[3]; 1,4-Dioxane (0.164)
  φ (fluorescence quantum yield): 0.75
  λmax^abs: 380/437
  λmax^t1: 533 nm
[3]; 1,4-dioxane to H2O
  red shift in the emission spectra with solvent polarity: 69 nm
[3]; DMF (0.386)
  φ (fluorescence quantum yield): 0.54
  λmax^abs: 371/456
  λmax^t1: 577 nm
[3]; EtOH (0.654)
  φ (fluorescence quantum yield): 0.34
  λmax^abs: 379/460
  λmax^t1: 578 nm
[3]; EtOH/HEPES (9:1)
  φ (fluorescence quantum yield): 0.22
  λmax^abs: 379/465
  λmax^t1: 585 nm
[3]; FRET from IR to FL moiety, excitation at 373 nm, Equation (1)
  energy transfer efficiency (ETE): 93.4%
[3]; HEPES buffer 20 mM, pH 7.0
  φ (fluorescence quantum yield): 0.0028
  λmax^abs: 380/453
  λmax^t1: 602 nm
[3]; TP mode, 750 nm vs direct excitation 880 nm
  antenna effect: 3.1
[3]; one-photon (OP) mode, 373 nm vs direct excitation 461 nm
  antenna effect: 3.0
[3]; [7]
  decrease of area of blue emission (400-450 nm) from that of IR: 9.2 fold
  increase of area of red emission (550-650 nm) from that of FL: 3.4 fold
[3]; two-photon (TP) mode
  decrease of blue emission: 13 fold
  increase of red emission: 3.1 fold
[4]
  photostability: TPEF intensity after continuous radiation: remained nearly the same
[5]; ACCu2 (20 μM)-labeled rat brain tissue, untreated
  Ired/Iblue ratio: 9.9±0.5
[5]; [8]
  Ired/Iblue ratio: 6.8±0.6
  free copper ion concentration: 14 ± 1.5 µM
[5]; rat brain tissue, untreated
  free copper(II) ion concentration: 0.0 ± 1.1 µM
